Experiments:
[1] = target: T1, Amine oxidase [flavin-containing] B (Homo sapiens, UniProt P27338)
T1 sequence (P27338 whole entry): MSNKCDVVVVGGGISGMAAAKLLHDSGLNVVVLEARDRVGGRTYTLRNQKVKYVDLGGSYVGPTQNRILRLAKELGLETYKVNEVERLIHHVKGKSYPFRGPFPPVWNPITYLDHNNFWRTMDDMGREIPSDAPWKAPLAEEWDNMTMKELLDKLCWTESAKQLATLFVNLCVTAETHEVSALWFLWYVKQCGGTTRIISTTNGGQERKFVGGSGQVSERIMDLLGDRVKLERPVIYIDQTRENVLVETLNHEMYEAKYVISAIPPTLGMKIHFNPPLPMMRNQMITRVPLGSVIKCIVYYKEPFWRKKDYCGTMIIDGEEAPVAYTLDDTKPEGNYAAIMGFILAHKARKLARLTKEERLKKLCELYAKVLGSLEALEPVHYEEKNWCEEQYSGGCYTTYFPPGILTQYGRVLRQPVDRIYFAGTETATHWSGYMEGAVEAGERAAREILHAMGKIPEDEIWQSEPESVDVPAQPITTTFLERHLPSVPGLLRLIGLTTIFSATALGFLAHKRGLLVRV
Description: Inhibition of human recombinant MAO-B using benzylamine as substrate incubated for 15 mins prior to substrate addition measured after 20 mins by fluorescence plate reader analysis

[2] = Antioxidant activity assessed as trolox equivalent of AAPH radical scavenging activity compound preincubated for 10 mins followed by AAPH challenge measured every min for 120 mins by ORAC-FL assay; format: physicochemical; conditions: 2 h
[3] = target: Amyloid-beta precursor protein (Homo sapiens) (UniProt P05067); assay: Inhibition of Cu2+-induced amyloid beta (1 to 42) aggregation (unknown origin) at 50 uM after 24 hrs by thioflavin T fluorescence assay (reference value: 100%); set-up: scale not given: the % may be the effect or the level left
Amyloid-beta precursor protein (Homo sapiens), sequence (P05067 whole entry): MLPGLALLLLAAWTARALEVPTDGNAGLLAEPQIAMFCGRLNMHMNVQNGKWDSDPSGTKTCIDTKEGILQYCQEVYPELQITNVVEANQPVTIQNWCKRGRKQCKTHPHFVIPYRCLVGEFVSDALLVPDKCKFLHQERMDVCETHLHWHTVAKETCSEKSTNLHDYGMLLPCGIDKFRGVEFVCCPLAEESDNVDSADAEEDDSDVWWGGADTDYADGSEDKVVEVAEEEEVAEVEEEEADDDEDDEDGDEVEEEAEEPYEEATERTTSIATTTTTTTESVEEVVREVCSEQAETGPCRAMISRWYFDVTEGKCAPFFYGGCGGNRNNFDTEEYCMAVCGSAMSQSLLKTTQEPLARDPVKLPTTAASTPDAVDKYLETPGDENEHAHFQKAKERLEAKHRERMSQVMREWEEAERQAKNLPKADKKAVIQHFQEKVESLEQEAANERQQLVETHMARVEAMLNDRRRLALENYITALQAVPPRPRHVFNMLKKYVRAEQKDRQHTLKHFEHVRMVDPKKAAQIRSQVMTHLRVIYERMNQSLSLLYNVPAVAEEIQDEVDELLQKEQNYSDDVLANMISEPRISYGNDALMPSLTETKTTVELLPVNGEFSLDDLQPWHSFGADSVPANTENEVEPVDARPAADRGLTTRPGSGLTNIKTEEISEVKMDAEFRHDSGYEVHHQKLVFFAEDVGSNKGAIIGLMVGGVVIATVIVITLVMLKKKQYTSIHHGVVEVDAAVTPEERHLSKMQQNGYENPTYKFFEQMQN

[4] = target: T2, Amine oxidase [flavin-containing] A (Homo sapiens, UniProt P21397)
T2 sequence (P21397 whole entry): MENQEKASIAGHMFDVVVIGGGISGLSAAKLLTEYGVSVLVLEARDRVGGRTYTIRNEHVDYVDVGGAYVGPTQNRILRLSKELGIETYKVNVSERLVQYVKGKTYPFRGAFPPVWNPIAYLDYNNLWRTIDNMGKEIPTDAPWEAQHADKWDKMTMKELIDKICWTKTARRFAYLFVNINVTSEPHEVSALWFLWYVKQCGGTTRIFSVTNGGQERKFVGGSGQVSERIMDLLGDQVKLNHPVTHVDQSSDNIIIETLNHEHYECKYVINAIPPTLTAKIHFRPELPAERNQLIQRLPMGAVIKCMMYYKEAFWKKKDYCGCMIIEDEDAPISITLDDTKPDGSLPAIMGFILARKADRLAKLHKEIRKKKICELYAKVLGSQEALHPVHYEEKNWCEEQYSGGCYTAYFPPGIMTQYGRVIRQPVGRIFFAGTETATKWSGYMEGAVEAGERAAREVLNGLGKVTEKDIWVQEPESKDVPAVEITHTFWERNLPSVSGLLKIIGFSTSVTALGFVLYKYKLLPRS
Description: Inhibition of human recombinant MAO-A using p-tyramine as substrate incubated for 15 mins prior to substrate addition measured after 20 mins by fluorescence plate reader analysis

Homo sapiens = species: Homo sapiens; assay: Selectivity index, ratio of IC50 for human recombinant MAO-A to IC50 for human recombinant MAO-B
physchem = conditions: PAMPA
Description: Permeability of the compound at 100 ug/mL after 10 hrs by PAMPA-BBB assay

[5] = Metal chelating activity of the compound assessed as Cu2+ complex formation at 40 uM after 30 mins by UV-vis spectrometry; format: physicochemical; conditions: 0.5 h
[6] = Metal chelating activity of the compound assessed as Fe2+ complex formation at 40 uM after 30 mins by UV-vis spectrometry; format: physicochemical; conditions: 0.5 h
[7] = Metal chelating activity of the compound assessed as Zn2+ complex formation at 40 uM after 30 mins by UV-vis spectrometry; format: physicochemical; conditions: 0.5 h

Structure (SMILES) | IC50 [1] | Activity [2] | Activity [3] | IC50 [4] | Ratio IC50 (Homo sapiens) | Papp at 10 h, 100 ug/mL (physchem) | Activity [5] | Activity [6] | Activity [7]
C#CCN(C)[C@H](C)Cc1ccc(NCc2ncccc2OC)cc1 | 310 nM | 1.49 µmol | 69.1% | 3410 nM | – | – | – | – | –
C#CCN(C)[C@H](C)Cc1ccc(NCc2cc(Cl)ccc2O)cc1 | 310 nM | 4.44 µmol | – | 700 nM | 2.2 | – | – | – | –
C#CCN(C)[C@H](C)Cc1ccc(NCc2cc(O)ccc2O)cc1 | 430 nM | 5.67 µmol | 63.1% | 1030 nM | 2.4 | 3.1 ×10⁻⁶ cm/s | – | – | –
C#CCN(C)[C@H](C)Cc1ccc(NCc2cccc(OC)c2O)cc1 | > 1000 nM | 2.44 µmol | – | – | – | – | – | – | –
C#CCN(C)[C@H](C)Cc1ccc(NCc2ccccc2O)cc1 | 210 nM | 4.2 µmol | 40.4% | 5370 nM | 25.6 | 11.5 ×10⁻⁶ cm/s | Active | Active | Active
C#CCN(C)[C@H](C)Cc1ccc(NCc2cc(OC)ccc2O)cc1 | 310 nM | 3.81 µmol | – | 1020 nM | 3.3 | 11.7 ×10⁻⁶ cm/s | – | – | –
C#CCN(C)[C@H](C)Cc1ccc(NCc2cc([N+](=O)[O-])ccc2O)cc1 | 950 nM | 2.1 µmol | – | – | – | – | – | – | –
CCN(CC)CCCC(C)Nc1ccnc2cc(Cl)ccc12 (stereo not given) | – | – | 68.2% | – | – | – | – | – | –
C#CCN(C)[C@H](C)Cc1ccc(NCc2ncccc2C)cc1 | 520 nM | 1.78 µmol | – | 5530 nM | 10.6 | 12.1 ×10⁻⁶ cm/s | – | – | –
C#CCN(C)[C@H](C)Cc1ccc(NCc2cc(N(C)C)ccc2O)cc1 | > 1000 nM | 4.52 µmol | – | – | – | 12.5 ×10⁻⁶ cm/s | – | – | –
C#CCN(C)[C@H](C)Cc1ccc(NCc2ccc(OC)cc2O)cc1 | > 1000 nM | 4.35 µmol | – | – | – | – | – | – | –
C#CCN(C)[C@H](C)Cc1ccc(NCc2cc(F)ccc2O)cc1 | > 1000 nM | 2.26 µmol | – | – | – | – | – | – | –

From ChEMBL document CHEMBL3585271 (Bioorg Med Chem, 2015)
